# Experimental data from ChEMBL document CHEMBL3885881, “DrugMatrix”.
# Species on record: Rattus norvegicus
# Test: DrugMatrix - Regimen: Daily Repeat
# Type: toxicity, organism-based, Sprague-Dawley
# Design: regimen Daily Repeat, gender Male, age 6-8 weeks
# Settings: in vivo, po, route oral GAVAGE, vehicle 100 % WATER; for ERYTHROCYTE COUNT / HEMATOCRIT / HEMOGLOBIN / LEUKOCYTE COUNT / MEAN CORPUSCULAR HEMOGLOBIN / MEAN CORPUSCULAR HEMOGLOBIN CONCENTRATION / MEAN CORPUSCULAR VOLUME: tissue Blood; for ALANINE AMINOTRANSFERASE / ALBUMIN / ALKALINE PHOSPHATASE / ASPARTATE AMINOTRANSFERASE / BLOOD UREA NITROGEN / CARBON DIOXIDE / CHLORIDE / CHOLESTEROL / CREATINE PHOSPHOKINASE / CREATININE / GLUCOSE / LACTATE DEHYDROGENASE / LIPASE / PHOSPHORUS / POTASSIUM / SODIUM / TOTAL BILIRUBIN / TOTAL PROTEIN / URIC ACID: tissue Plasma
# [1] = 0 mg/kg, 72 h, dose level Control, time 3 day
# [2] = 0 mg/kg, 120 h, dose level Control, time 5 day
# [3] = 70 mg/kg, 72 h, dose level Low, time 3 day
# [4] = 70 mg/kg, 120 h, dose level Low, time 5 day
smiles,measurement,setting,value
COc1cc2c(N3CCN(C(=O)Nc4ccc(OC(C)C)cc4)CC3)ncnc2cc1OCCCN1CCCCC1 [TANDUTINIB],ERYTHROCYTE COUNT,[1],6.09 x10E6/uL
same,HEMATOCRIT,[1],42.62%
same,HEMOGLOBIN,[1],13.07 G/DL
same,LEUKOCYTE COUNT,[1],13.95 x10E3/uL
same,MEAN CORPUSCULAR HEMOGLOBIN,[1],21.47 pg
same,MEAN CORPUSCULAR HEMOGLOBIN CONCENTRATION,[1],30.62 G/DL
same,MEAN CORPUSCULAR VOLUME,[1],70.05 fL
same,ALANINE AMINOTRANSFERASE,[1],47.67 u/L
same,ALBUMIN,[1],3.8 G/DL
same,ALKALINE PHOSPHATASE,[1],369 u/L
same,ASPARTATE AMINOTRANSFERASE,[1],86.17 u/L
same,BLOOD UREA NITROGEN,[1],16.33 mg/dL
same,CARBON DIOXIDE,[1],37.33 mmol/L
same,CHLORIDE,[1],104.83 MEQ/L
same,CHOLESTEROL,[1],79.83 mg/dL
same,CREATINE PHOSPHOKINASE,[1],392.83 u/L
same,CREATININE,[1],0.68 mg/dL
same,GLUCOSE,[1],153.33 mg/dL
same,LACTATE DEHYDROGENASE,[1],426.17 u/L
same,LIPASE,[1],11.67 u/L
same,PHOSPHORUS,[1],11 mg/dL
same,POTASSIUM,[1],6.72 MEQ/L
same,SODIUM,[1],146.67 MEQ/L
same,TOTAL BILIRUBIN,[1],0.55 mg/dL
same,TOTAL PROTEIN,[1],6.32 G/DL
same,URIC ACID,[1],0.0167 mg/dL
same,ERYTHROCYTE COUNT,[2],6.93 x10E6/uL
same,HEMATOCRIT,[2],46.82%
same,HEMOGLOBIN,[2],14.23 G/DL
same,LEUKOCYTE COUNT,[2],13.43 x10E3/uL
same,MEAN CORPUSCULAR HEMOGLOBIN,[2],20.55 pg
same,MEAN CORPUSCULAR HEMOGLOBIN CONCENTRATION,[2],30.38 G/DL
same,MEAN CORPUSCULAR VOLUME,[2],67.62 fL
same,ALANINE AMINOTRANSFERASE,[2],44.67 u/L
same,ALBUMIN,[2],3.8 G/DL
same,ALKALINE PHOSPHATASE,[2],417.83 u/L
same,ASPARTATE AMINOTRANSFERASE,[2],83 u/L
same,BLOOD UREA NITROGEN,[2],15.33 mg/dL
same,CARBON DIOXIDE,[2],38.83 mmol/L
same,CHLORIDE,[2],98.17 MEQ/L
same,CHOLESTEROL,[2],66.83 mg/dL
same,CREATINE PHOSPHOKINASE,[2],383.17 u/L
same,CREATININE,[2],0.72 mg/dL
same,GLUCOSE,[2],156.5 mg/dL
same,LACTATE DEHYDROGENASE,[2],519.67 u/L
same,LIPASE,[2],4.83 u/L
same,PHOSPHORUS,[2],11.07 mg/dL
same,POTASSIUM,[2],6.03 MEQ/L
same,SODIUM,[2],138 MEQ/L
same,TOTAL BILIRUBIN,[2],0.55 mg/dL
same,TOTAL PROTEIN,[2],6.3 G/DL
same,URIC ACID,[2],0.0833 mg/dL
same,ERYTHROCYTE COUNT,[3],6.43 x10E6/uL
same,HEMATOCRIT,[3],44.4%
same,HEMOGLOBIN,[3],13.2 G/DL
same,LEUKOCYTE COUNT,[3],8.32 x10E3/uL
same,MEAN CORPUSCULAR HEMOGLOBIN,[3],20.5 pg
same,MEAN CORPUSCULAR HEMOGLOBIN CONCENTRATION,[3],29.63 G/DL
same,MEAN CORPUSCULAR VOLUME,[3],69.13 fL
same,ALANINE AMINOTRANSFERASE,[3],47 u/L
same,ALBUMIN,[3],3.87 G/DL
same,ALKALINE PHOSPHATASE,[3],436.67 u/L
same,ASPARTATE AMINOTRANSFERASE,[3],80.67 u/L
same,BLOOD UREA NITROGEN,[3],15.33 mg/dL
same,CARBON DIOXIDE,[3],37.33 mmol/L
same,CHLORIDE,[3],107.67 MEQ/L
same,CHOLESTEROL,[3],84.67 mg/dL
same,CREATINE PHOSPHOKINASE,[3],198 u/L
same,CREATININE,[3],0.67 mg/dL
same,GLUCOSE,[3],163.33 mg/dL
same,LACTATE DEHYDROGENASE,[3],277.33 u/L
same,LIPASE,[3],14.33 u/L
same,PHOSPHORUS,[3],9.63 mg/dL
same,POTASSIUM,[3],6.33 MEQ/L
same,SODIUM,[3],149.67 MEQ/L
same,TOTAL BILIRUBIN,[3],0.47 mg/dL
same,TOTAL PROTEIN,[3],6.2 G/DL
same,URIC ACID,[3],0.0333 mg/dL
same,ERYTHROCYTE COUNT,[4],6.62 x10E6/uL
same,HEMATOCRIT,[4],44.77%
same,HEMOGLOBIN,[4],13.67 G/DL
same,LEUKOCYTE COUNT,[4],11.49 x10E3/uL
same,MEAN CORPUSCULAR HEMOGLOBIN,[4],20.67 pg
same,MEAN CORPUSCULAR HEMOGLOBIN CONCENTRATION,[4],30.6 G/DL
same,MEAN CORPUSCULAR VOLUME,[4],67.7 fL
same,ALANINE AMINOTRANSFERASE,[4],36.33 u/L
same,ALBUMIN,[4],3.8 G/DL
same,ALKALINE PHOSPHATASE,[4],323.33 u/L
same,ASPARTATE AMINOTRANSFERASE,[4],69 u/L
same,BLOOD UREA NITROGEN,[4],14.67 mg/dL
same,CARBON DIOXIDE,[4],34.67 mmol/L
same,CHLORIDE,[4],100.67 MEQ/L
same,CHOLESTEROL,[4],73 mg/dL
same,CREATINE PHOSPHOKINASE,[4],199 u/L
same,CREATININE,[4],0.67 mg/dL
same,GLUCOSE,[4],164.33 mg/dL
same,LACTATE DEHYDROGENASE,[4],327 u/L
same,LIPASE,[4],5.67 u/L
same,PHOSPHORUS,[4],11.33 mg/dL
same,POTASSIUM,[4],5.83 MEQ/L
same,SODIUM,[4],139.67 MEQ/L
same,TOTAL BILIRUBIN,[4],0.43 mg/dL
same,TOTAL PROTEIN,[4],6.17 G/DL
same,URIC ACID,[4],0.27 mg/dL
